Data published in ChEMBL document CHEMBL1201862, “PubChem BioAssay data set” (2004).
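Cultured in 96-well plates, cells were exposed to test compound for 48 hours across five concentrations. At the GI50, growth is halved.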 The source made the active and inactive calls. Rule as the data show it: active = GI50 up to about 1.1 µM and inactive = higher.

Assays:
Experiment in all cases: NCI-60 cell line screen, 48 h
[1] = system: U-251
[2] = system: HCT-116
[3] = system: OVCAR-4
[4] = system: HOP-62
[5] = system: SK-MEL-28
[6] = system: SF-539
[7] = system: NCI-H460
[8] = system: IGROV-1
[9] = system: OVCAR-3
[10] = system: RXF 393
[11] = system: ACHN
[12] = system: SF-268
[13] = system: UACC-62
[14] = system: CAKI-1
[15] = system: RPMI-8226
[16] = system: HOP-92

Measured: GI50

COC(=O)C(CCCC1(c2ccccc2)OCCO1)C(C)=O (stereo not given)
inactive: [1] > 100 µM | [2] > 100 µM | [3] > 100 µM | [4] > 100 µM | [5] > 100 µM | [6] > 100 µM | [7] > 100 µM | [8] > 100 µM | [9] > 100 µM | [10] > 100 µM | [11] 38.1 µM | [12] > 100 µM

CC1=NN=C(NCCN(C)C)C/C1=C/c1ccccc1Cl
inactive: [13] > 100 µM | [1] > 100 µM | [2] > 100 µM | [3] > 100 µM | [14] 73.5 µM | [4] > 100 µM | [5] 59.2 µM | [6] > 100 µM | [7] > 100 µM | [8] > 100 µM | [9] > 100 µM | [10] 95.1 µM | [11] > 100 µM | [12] > 100 µM

CC(C(=O)n1c2ccccc2c2ccccc21)N(c1ccccc1)c1ccccc1 (stereo not given)
inactive: [13] 17.6 µM | [1] 17.8 µM | [2] 18.7 µM | [14] 14.5 µM | [15] 16.3 µM | [4] 16.3 µM | [5] 19.1 µM | [6] 19.2 µM | [7] 34.6 µM | [8] 18.3 µM | [9] 17.8 µM | [10] 14.6 µM | [11] 16.6 µM | [12] 19.3 µM

CC1=C(C(=O)Nc2ccccc2)C(c2ccc([N+](=O)[O-])cc2)C(C(=O)Nc2ccccc2)=C(C)N1
inactive: [13] 12.2 µM | [1] 17.4 µM | [2] 18.5 µM | [16] 17.9 µM | [15] 15.2 µM | [4] 39.1 µM | [5] 31.5 µM | [6] 20.7 µM | [7] 21.1 µM | [8] 28.6 µM | [9] 21.7 µM | [10] 17.6 µM | [11] 37 µM | [12] 22.6 µM

Cc1cc2c(cc1C)[n+]([O-])c(-c1c(Cl)cccc1Cl)c(N)[n+]2[O-]
inactive: [13] 23.2 µM | [1] 33.3 µM | [3] 39 µM | [14] 31 µM | [16] > 100 µM | [15] 67.5 µM | [4] 30.5 µM | [5] 28.2 µM | [6] 27.9 µM | [7] 30.3 µM | [8] 41.3 µM | [9] 28.2 µM | [11] 36.5 µM | [12] 32.9 µM

CS/C(=N\C(=S)Nc1ccccc1)Nc1ccccc1
inactive: [13] 4.58 µM | [1] 19.8 µM | [2] > 10 µM | [3] 26.3 µM | [14] 14.6 µM | [15] 12.8 µM | [4] 27.9 µM | [5] 15 µM | [6] > 10 µM | [7] 12 µM | [8] 16.4 µM | [9] 21 µM | [10] 15.2 µM | [11] 17.5 µM | [12] 25.6 µM

CCN(CC)CC(C(=O)Nc1c(C)cccc1C)/C(C)=N/NC(N)=S (stereo not given)
inactive: [13] > 100 µM | [1] > 100 µM | [2] > 100 µM | [16] > 100 µM | [15] > 100 µM | [4] > 100 µM | [5] > 100 µM | [6] > 100 µM | [7] > 100 µM | [8] > 100 µM | [9] > 100 µM | [10] > 100 µM | [11] > 100 µM | [12] > 100 µM

C=CCOC(C)n1c(C)cc(=O)n(C(C)OCC=C)c1=O (stereo not given)
inactive: [13] > 100 µM | [1] > 100 µM | [2] > 100 µM | [3] > 100 µM | [16] 72.1 µM | [15] > 100 µM | [4] > 100 µM | [5] > 100 µM | [6] > 100 µM | [8] > 100 µM | [10] > 100 µM | [11] > 100 µM | [12] > 100 µM
